Earlier results as cited in US7060295B2, “Formulations for the prevention and treatment of insulin resistance and type 2 diabetes mellitus” (ChronoRX LLC, priority 2000, dated 2006).

How the values were obtained:
[1] = in vivo
[2] = supplementation
sulfonylurea receptor = sulfonylurea receptor (Homo sapiens, UniProt Q09428); conditions: β-cell membrane receptors
[3] = 1 year, 457 non-diabetic patients with android (abdominal) obesity
[4] = in vivo; remark: listed apart in the source
[5] = in vivo; remark: listed apart in the source
[6] = system: insulin secreting β-cells
[7] = not given; remark: listed apart in the source
[8] = oral 60 mg twice daily for 8 weeks
pancreatic islets = conditions: islets simultaneously exposed to IL-1 beta
[9] = not given; remark: listed apart in the source
[10] = 600 mg/day, used alone, obese type 2 diabetes patients

Chain of sulfonylurea receptor (Q09428 whole entry): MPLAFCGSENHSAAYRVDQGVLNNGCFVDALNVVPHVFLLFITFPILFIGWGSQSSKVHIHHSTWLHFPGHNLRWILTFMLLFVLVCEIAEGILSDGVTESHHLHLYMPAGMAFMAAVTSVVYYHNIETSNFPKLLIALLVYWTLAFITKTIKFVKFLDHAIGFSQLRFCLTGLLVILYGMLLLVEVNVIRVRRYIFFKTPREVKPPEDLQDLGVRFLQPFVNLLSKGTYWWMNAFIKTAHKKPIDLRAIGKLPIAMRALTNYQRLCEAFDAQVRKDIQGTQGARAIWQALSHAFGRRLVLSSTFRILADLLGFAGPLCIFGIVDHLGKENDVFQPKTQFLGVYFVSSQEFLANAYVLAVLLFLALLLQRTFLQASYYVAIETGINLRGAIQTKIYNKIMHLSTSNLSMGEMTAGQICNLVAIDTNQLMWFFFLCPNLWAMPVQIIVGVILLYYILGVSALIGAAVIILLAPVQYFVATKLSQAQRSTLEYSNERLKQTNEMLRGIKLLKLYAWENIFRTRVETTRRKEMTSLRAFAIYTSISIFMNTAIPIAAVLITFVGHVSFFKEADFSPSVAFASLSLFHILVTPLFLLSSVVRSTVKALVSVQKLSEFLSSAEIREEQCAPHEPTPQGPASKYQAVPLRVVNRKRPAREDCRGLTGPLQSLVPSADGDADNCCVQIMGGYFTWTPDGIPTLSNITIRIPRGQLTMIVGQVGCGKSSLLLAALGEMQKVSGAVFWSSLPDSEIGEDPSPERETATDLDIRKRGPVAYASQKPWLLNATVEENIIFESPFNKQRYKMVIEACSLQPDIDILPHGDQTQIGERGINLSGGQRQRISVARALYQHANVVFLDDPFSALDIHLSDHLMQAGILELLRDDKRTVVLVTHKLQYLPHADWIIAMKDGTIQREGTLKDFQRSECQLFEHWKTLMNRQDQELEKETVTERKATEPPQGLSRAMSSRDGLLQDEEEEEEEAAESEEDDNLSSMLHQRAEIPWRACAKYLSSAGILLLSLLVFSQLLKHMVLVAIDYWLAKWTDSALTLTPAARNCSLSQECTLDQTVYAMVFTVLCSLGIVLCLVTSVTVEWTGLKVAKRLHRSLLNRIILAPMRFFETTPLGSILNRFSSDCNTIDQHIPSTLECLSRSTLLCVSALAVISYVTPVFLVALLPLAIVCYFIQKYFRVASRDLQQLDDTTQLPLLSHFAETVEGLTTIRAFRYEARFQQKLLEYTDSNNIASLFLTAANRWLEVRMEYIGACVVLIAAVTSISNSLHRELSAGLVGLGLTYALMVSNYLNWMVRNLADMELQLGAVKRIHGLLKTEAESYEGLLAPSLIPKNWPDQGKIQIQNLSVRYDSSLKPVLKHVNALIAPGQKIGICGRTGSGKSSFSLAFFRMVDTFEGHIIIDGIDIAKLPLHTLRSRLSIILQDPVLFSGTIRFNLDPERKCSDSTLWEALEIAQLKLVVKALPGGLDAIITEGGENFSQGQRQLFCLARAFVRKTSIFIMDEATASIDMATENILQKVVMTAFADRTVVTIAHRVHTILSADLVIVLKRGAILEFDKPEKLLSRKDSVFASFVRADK
Chain of sulfonylurea receptor (Q14654 whole entry partner): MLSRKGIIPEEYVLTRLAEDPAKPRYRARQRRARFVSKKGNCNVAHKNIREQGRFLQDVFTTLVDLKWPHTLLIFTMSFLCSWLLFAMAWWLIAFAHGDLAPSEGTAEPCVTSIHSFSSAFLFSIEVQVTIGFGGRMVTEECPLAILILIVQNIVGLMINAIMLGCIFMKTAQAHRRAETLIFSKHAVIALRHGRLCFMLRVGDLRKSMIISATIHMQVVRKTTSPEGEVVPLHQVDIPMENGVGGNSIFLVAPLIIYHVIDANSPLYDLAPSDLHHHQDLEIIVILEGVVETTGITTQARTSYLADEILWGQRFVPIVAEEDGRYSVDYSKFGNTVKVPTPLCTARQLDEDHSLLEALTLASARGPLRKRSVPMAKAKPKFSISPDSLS

CC(=O)c1ccc(S(=O)(=O)NC(=O)NC2CCCCC2)cc1 [Acetohexamide]
Duration of Action [1]: 12 to 18 h

CCCNC(=O)NS(=O)(=O)c1ccc(Cl)cc1 [Chlorpropamide]
Duration of Action [1]: 60 h

[Cr] [Cr, Chromium]
reduction of metformin requirements [2]: more than one-half

CCC1=C(C)CN(C(=O)NCCc2ccc(S(=O)(=O)NC(=O)N[C@H]3CC[C@H](C)CC3)cc2)C1=O [Glimepiride]
Duration of Action [1]: 16 to 24 h

Cc1cnc(C(=O)NCCc2ccc(S(=O)(=O)NC(=O)NC3CCCCC3)cc2)cn1 [Glipizide (XL), Glipizide]
Duration of Action [1]: 24 h

Cc1cnc(C(=O)NCCc2ccc(S(=O)(=O)NC(=O)NC3CCCCC3)cc2)cn1 [Glipizide]
Duration of Action [1]: 12 to 24 h
concentration range that saturates sulfonylurea receptors (sulfonylurea receptor): low nM

COc1ccc(Cl)cc1C(=O)NCCc1ccc(S(=O)(=O)NC(=O)NC2CCCCC2)cc1 [Glyburide]
glycolytic flux and lactate production (perfused rat hearts): dramatic increase

CN(C)C(=N)N=C(N)N [Metformin, metformin]
decrease of low-density lipoprotein (LDL) cholesterol levels (monotherapy): 10% to 15%
decrease of plasma triglyceride levels (monotherapy): 10% to 15%
weight loss (patients with type 2 diabetes, first 6 months of treatment): 2 to 3 kg
weight change [3]: significant weight loss
lactic acidosis, reported frequency [4]: 3 cases per 100,000 patient-years
lactic acidosis, reported incidence [4]: 0.03 /1,000 patient-years exposure
gastrointestinal side effects (diarrhea, nausea, abdominal pain, metallic taste) [5]: 20% to 30%

CCCCNC(=O)NS(=O)(=O)c1ccc(C)cc1 [Tolbutamide]
Duration of Action [1]: 6 to 12 h

O=C1O[C@H]([C@@H](O)CO)C(O)=C1O [ascorbate, ascorbic acid]
decrease of cellular insulin glycation [6]: 66–80%

C[N+](C)(C)CC(O)CC(=O)[O-] (stereo not drawn) [carnitine, beta-hydroxy-gamma-N-trimethylaminobutyric acid]
amount absorbed from the intestine ([7]; oral): 15 to 87 % of ingested carnitine
tissue concentrations relative to plasma ([7]; skeletal and cardiac muscle, active transport): 20- to 50 fold

COC1=C(OC)C(=O)C(C/C=C(\C)CC/C=C(\C)CC/C=C(\C)CC/C=C(\C)CC/C=C(\C)CC/C=C(\C)CC/C=C(\C)CC/C=C(\C)CC/C=C(\C)CCC=C(C)C)=C(C)C1=O [coenzyme Q10, Ubiquinone]
HDL-cholesterol [8]: increased
systolic and diastolic blood pressure, fasting and 2-h plasma insulin, glucose, triglycerides, lipid peroxides, malondialdehyde and diene conjugates [8]: all reduced

NC(=O)c1cccnc1 [nicotinamide]
concentration of maximum effect on recovery of glucose-induced insulin secretion (pancreatic islets): 25 mmol/L

O=S(=O)([O-])[O-].[O]=[V+2] [vanadyl sulfate]
duration of effects after discontinuation ([9]; 100 mg/day for 3 weeks): up to 2 weeks
hepatic and peripheral insulin sensitivity ([9]; 100 mg/day, after 3 weeks): appear to improve

vitamin E
insulin efficiency [10]: further worsen insulin efficiency
